Experimental data from paper PMC11842588, “A first-in-class selective inhibitor of ERK1/2 and ERK5 overcomes drug resistance with a single-molecule strategy” (Signal Transduction and Targeted Therapy, 2025).

Experiments:
Experiment in all cases: Kinase profiling
Format in all cases: biochemical
CDK17/cyclinY(h) = molecular target: T1, CDK17/cyclinY(h) (Homo sapiens, UniProt Q00537)
T1 construct: purchased Eurofins Cerep SA (KinaseProfiler)
Method: (§1) 380 kinases inhibitory activities of SKLB-D18 were conducted by Eurofins Cerep SA. The result was illustrated by kinase tree (http://www.kinhub.org/kinmap/).

CK1α(h) = molecular target: T2, CK1α(h) (Homo sapiens, UniProt P48729)
T2 construct: purchased Eurofins Cerep SA (KinaseProfiler)
Method: as §1

CK1δ(h) = molecular target: T3, CK1δ(h) (Homo sapiens, UniProt P48730)
T3 construct: purchased Eurofins Cerep SA (KinaseProfiler)
Method: as §1

CK2(h) = molecular target: T4, CK2(h) (Homo sapiens, UniProt P68400)
T4 construct: purchased Eurofins Cerep SA (KinaseProfiler)
Method: as §1

CSK(h) = molecular target: T5, CSK(h) (Homo sapiens, UniProt P41240)
T5 construct: purchased Eurofins Cerep SA (KinaseProfiler)
Method: as §1

DRAK2(h) = molecular target: T6, DRAK2(h) (Homo sapiens, UniProt O94768)
T6 construct: purchased Eurofins Cerep SA (KinaseProfiler)
Method: as §1

DYRK3(h) = molecular target: T7, DYRK3(h) (Homo sapiens, UniProt O43781)
T7 construct: purchased Eurofins Cerep SA (KinaseProfiler)
Method: as §1

Flt4(h) = molecular target: T8, Flt4(h) (Homo sapiens, UniProt P35916)
T8 construct: purchased Eurofins Cerep SA (KinaseProfiler)
Method: as §1

HIPK1(h) = molecular target: T9, HIPK1(h) (Homo sapiens, UniProt Q86Z02)
T9 construct: purchased Eurofins Cerep SA (KinaseProfiler)
Method: as §1

IR(h) = molecular target: T10, IR(h) (Homo sapiens, UniProt P06213)
T10 construct: purchased Eurofins Cerep SA (KinaseProfiler)
Method: as §1

JNK3(h) = molecular target: T11, JNK3(h) (Homo sapiens, UniProt P53779)
T11 construct: purchased Eurofins Cerep SA (KinaseProfiler)
Method: as §1

MAK(h) = molecular target: T12, MAK(h) (Homo sapiens, UniProt P20794)
T12 construct: purchased Eurofins Cerep SA (KinaseProfiler)
Method: as §1

MAPK3(h) = molecular target: T13, MAPK3(h) (Homo sapiens, UniProt P27361)
T13 construct: purchased Eurofins Cerep SA (KinaseProfiler)
Method: as §1

MAPK7(h) = molecular target: T14, MAPK7(h) (Homo sapiens, UniProt Q13164)
T14 construct: purchased Eurofins Cerep SA (KinaseProfiler)
Method: as §1

MATK(h) = molecular target: T15, MATK(h) (Homo sapiens, UniProt P42679)
T15 construct: purchased Eurofins Cerep SA (KinaseProfiler)
Method: as §1

MINK(h) = molecular target: T16, MINK(h) (Homo sapiens, UniProt Q8N4C8)
T16 construct: purchased Eurofins Cerep SA (KinaseProfiler)
Method: as §1

MSK2(h) = molecular target: T17, MSK2(h) (Homo sapiens, UniProt O75676)
T17 construct: purchased Eurofins Cerep SA (KinaseProfiler)
Method: as §1

MST3(h) = molecular target: T18, MST3(h) (Homo sapiens, UniProt Q9Y6E0)
T18 construct: purchased Eurofins Cerep SA (KinaseProfiler)
Method: as §1

MST4(h) = molecular target: T19, MST4(h) (Homo sapiens, UniProt Q9P289)
T19 construct: purchased Eurofins Cerep SA (KinaseProfiler)
Method: as §1

NEK1(h) = molecular target: T20, NEK1(h) (Homo sapiens, UniProt Q96PY6)
T20 construct: purchased Eurofins Cerep SA (KinaseProfiler)
Method: as §1

PAK2(h) = molecular target: T21, PAK2(h) (Homo sapiens, UniProt Q13177)
T21 construct: purchased Eurofins Cerep SA (KinaseProfiler)
Method: as §1

PAK6(h) = molecular target: T22, PAK6(h) (Homo sapiens, UniProt Q9NQU5)
T22 construct: purchased Eurofins Cerep SA (KinaseProfiler)
Method: as §1

PI3KC2g(h) = molecular target: T23, PI3KC2g(h) (Homo sapiens, UniProt O75747)
T23 construct: purchased Eurofins Cerep SA (KinaseProfiler)
Method: as §1

PIP5K1a(h) = molecular target: T24, PIP5K1a(h) (Homo sapiens, UniProt Q99755)
T24 construct: purchased Eurofins Cerep SA (KinaseProfiler)
Method: as §1

PKBβ(h) = molecular target: T25, PKBβ(h) (Homo sapiens, UniProt P31751)
T25 construct: purchased Eurofins Cerep SA (KinaseProfiler)
Method: as §1

PKCδ(h) = molecular target: T26, PKCδ(h) (Homo sapiens, UniProt Q05655)
T26 construct: purchased Eurofins Cerep SA (KinaseProfiler)
Method: as §1

PKD3(h) = molecular target: T27, PKD3(h) (Homo sapiens, UniProt O94806)
T27 construct: purchased Eurofins Cerep SA (KinaseProfiler)
Method: as §1

PhKγ2(h) = molecular target: T28, PhKγ2(h) (Homo sapiens, UniProt P15735)
T28 construct: purchased Eurofins Cerep SA (KinaseProfiler)
Method: as §1

Pim-1(h) = molecular target: T29, Pim-1(h) (Homo sapiens, UniProt P11309)
T29 construct: purchased Eurofins Cerep SA (KinaseProfiler)
Method: as §1

RIPK2(h) = molecular target: T30, RIPK2(h) (Homo sapiens, UniProt O43353)
T30 construct: purchased Eurofins Cerep SA (KinaseProfiler)
Method: as §1

ROCK-I(h) = molecular target: T31, ROCK-I(h) (Homo sapiens, UniProt Q13464)
T31 construct: purchased Eurofins Cerep SA (KinaseProfiler)
Method: as §1

Rsk2(h) = molecular target: T32, Rsk2(h) (Homo sapiens, UniProt P51812)
T32 construct: purchased Eurofins Cerep SA (KinaseProfiler)
Method: as §1

SAPK3(h) = molecular target: T33, SAPK3(h) (Homo sapiens, UniProt P53778)
T33 construct: purchased Eurofins Cerep SA (KinaseProfiler)
Method: as §1

TAO2(h) = molecular target: T34, TAO2(h) (Homo sapiens, UniProt Q9UL54)
T34 construct: purchased Eurofins Cerep SA (KinaseProfiler)
Method: as §1

TAO3(h) = molecular target: T35, TAO3(h) (Homo sapiens, UniProt Q9H2K8)
T35 construct: purchased Eurofins Cerep SA (KinaseProfiler)
Method: as §1

TRB2(h) = molecular target: T36, TRB2(h) (Homo sapiens, UniProt Q92519)
T36 construct: purchased Eurofins Cerep SA (KinaseProfiler)
Method: as §1

TrkA(h) = molecular target: T37, TrkA(h) (Homo sapiens, UniProt P04629)
T37 construct: purchased Eurofins Cerep SA (KinaseProfiler)
Method: as §1

VRK1(h) = molecular target: T38, VRK1(h) (Homo sapiens, UniProt Q99986)
T38 construct: purchased Eurofins Cerep SA (KinaseProfiler)
Method: as §1

WNK1(h) = molecular target: T39, WNK1(h) (Homo sapiens, UniProt Q9H4A3)
T39 construct: purchased Eurofins Cerep SA (KinaseProfiler)
Method: as §1

WNK4(h) = molecular target: T40, WNK4(h) (Homo sapiens, UniProt Q96J92)
T40 construct: purchased Eurofins Cerep SA (KinaseProfiler)
Method: as §1

p70S6K(h) = molecular target: T41, p70S6K(h) (Homo sapiens, UniProt P23443)
T41 construct: purchased Eurofins Cerep SA (KinaseProfiler)
Method: as §1

T7 sequence (O43781 whole entry): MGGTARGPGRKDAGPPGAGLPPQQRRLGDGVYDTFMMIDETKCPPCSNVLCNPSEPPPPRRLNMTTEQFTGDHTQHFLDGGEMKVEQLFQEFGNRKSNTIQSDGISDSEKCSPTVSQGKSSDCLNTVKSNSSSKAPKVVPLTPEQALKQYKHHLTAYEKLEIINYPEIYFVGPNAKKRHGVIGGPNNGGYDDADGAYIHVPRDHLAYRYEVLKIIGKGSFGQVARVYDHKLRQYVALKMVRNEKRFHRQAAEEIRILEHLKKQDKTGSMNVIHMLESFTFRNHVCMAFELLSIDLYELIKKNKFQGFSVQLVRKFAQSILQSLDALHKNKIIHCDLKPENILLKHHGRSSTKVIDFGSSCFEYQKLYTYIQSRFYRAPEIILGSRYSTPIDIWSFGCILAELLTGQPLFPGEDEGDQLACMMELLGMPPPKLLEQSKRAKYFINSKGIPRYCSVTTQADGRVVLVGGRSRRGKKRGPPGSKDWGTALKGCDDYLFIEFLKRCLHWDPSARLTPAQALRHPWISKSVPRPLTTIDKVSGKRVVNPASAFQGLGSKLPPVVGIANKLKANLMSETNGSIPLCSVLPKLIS
T40 sequence (Q96J92 whole entry): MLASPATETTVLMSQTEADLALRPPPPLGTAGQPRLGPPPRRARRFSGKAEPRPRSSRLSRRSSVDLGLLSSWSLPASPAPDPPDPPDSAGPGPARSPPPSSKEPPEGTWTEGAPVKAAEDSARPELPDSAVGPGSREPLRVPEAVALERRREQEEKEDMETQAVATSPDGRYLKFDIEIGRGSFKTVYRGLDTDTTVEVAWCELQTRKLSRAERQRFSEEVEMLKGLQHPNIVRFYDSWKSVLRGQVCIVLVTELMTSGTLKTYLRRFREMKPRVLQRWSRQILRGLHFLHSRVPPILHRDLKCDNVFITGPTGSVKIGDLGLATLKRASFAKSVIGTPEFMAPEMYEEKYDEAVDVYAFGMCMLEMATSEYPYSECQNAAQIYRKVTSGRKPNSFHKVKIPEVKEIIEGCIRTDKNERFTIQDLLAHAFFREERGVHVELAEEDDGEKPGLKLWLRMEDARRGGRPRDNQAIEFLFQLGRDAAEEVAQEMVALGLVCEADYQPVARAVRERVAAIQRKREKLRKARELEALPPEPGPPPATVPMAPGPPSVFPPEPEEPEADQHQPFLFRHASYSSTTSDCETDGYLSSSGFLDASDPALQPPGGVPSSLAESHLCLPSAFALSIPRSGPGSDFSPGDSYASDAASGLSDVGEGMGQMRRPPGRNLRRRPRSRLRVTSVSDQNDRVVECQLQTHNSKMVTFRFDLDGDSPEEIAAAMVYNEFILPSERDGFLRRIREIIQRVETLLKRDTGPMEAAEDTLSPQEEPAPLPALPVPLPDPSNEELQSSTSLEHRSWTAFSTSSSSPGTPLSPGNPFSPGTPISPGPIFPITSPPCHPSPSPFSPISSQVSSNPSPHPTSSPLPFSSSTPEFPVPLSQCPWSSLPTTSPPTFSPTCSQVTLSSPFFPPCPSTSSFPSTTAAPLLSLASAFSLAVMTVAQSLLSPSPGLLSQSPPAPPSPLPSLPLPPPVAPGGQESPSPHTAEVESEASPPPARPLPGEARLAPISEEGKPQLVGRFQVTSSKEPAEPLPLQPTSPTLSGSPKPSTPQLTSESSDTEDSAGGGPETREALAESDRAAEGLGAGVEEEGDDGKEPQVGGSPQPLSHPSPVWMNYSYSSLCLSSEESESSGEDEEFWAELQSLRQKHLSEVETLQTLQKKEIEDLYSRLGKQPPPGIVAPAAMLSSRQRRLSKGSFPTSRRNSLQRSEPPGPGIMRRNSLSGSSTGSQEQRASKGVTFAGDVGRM
T33 sequence (P53778 whole entry): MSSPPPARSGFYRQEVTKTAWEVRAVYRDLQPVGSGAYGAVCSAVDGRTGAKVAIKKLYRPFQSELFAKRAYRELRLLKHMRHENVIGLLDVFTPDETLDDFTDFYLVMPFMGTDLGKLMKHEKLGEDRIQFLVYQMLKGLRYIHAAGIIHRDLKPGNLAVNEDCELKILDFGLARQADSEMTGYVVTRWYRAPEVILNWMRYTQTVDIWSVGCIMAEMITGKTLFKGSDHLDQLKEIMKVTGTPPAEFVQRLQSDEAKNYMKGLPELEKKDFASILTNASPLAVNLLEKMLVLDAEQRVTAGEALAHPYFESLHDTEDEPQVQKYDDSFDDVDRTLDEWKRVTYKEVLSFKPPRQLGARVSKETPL
T15 sequence (P42679 whole entry): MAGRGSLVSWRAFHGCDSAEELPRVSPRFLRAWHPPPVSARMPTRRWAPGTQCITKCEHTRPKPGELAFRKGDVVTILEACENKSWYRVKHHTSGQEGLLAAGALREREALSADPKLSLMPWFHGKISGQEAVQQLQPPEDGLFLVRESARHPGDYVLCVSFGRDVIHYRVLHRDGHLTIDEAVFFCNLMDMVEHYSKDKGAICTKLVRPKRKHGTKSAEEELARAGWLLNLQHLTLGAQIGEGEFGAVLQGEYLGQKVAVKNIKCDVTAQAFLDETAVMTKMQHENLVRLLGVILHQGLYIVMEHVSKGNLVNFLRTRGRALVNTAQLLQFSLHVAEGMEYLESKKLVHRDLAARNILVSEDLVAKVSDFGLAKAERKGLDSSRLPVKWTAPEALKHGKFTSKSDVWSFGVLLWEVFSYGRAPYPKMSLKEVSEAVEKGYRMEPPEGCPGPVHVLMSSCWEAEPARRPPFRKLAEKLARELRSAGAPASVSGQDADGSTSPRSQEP
T26 sequence (Q05655 whole entry): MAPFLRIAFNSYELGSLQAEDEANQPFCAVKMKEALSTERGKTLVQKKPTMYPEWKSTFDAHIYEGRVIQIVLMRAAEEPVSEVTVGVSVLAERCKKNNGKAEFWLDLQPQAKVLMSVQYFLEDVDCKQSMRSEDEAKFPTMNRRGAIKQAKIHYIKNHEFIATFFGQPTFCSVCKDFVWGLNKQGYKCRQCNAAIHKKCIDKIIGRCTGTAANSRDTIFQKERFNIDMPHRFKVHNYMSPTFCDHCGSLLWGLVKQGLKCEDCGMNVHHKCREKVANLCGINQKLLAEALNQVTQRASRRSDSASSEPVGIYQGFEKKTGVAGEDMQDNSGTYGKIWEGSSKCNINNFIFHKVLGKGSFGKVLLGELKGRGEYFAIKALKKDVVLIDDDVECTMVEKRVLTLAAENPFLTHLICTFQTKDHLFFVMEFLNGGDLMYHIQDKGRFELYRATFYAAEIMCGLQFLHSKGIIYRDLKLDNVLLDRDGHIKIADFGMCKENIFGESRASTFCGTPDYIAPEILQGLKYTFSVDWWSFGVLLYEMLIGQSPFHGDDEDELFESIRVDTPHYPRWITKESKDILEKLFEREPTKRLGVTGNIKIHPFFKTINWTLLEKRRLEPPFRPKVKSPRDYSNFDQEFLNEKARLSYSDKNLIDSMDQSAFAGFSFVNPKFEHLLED
T10 sequence (P06213 28-1382): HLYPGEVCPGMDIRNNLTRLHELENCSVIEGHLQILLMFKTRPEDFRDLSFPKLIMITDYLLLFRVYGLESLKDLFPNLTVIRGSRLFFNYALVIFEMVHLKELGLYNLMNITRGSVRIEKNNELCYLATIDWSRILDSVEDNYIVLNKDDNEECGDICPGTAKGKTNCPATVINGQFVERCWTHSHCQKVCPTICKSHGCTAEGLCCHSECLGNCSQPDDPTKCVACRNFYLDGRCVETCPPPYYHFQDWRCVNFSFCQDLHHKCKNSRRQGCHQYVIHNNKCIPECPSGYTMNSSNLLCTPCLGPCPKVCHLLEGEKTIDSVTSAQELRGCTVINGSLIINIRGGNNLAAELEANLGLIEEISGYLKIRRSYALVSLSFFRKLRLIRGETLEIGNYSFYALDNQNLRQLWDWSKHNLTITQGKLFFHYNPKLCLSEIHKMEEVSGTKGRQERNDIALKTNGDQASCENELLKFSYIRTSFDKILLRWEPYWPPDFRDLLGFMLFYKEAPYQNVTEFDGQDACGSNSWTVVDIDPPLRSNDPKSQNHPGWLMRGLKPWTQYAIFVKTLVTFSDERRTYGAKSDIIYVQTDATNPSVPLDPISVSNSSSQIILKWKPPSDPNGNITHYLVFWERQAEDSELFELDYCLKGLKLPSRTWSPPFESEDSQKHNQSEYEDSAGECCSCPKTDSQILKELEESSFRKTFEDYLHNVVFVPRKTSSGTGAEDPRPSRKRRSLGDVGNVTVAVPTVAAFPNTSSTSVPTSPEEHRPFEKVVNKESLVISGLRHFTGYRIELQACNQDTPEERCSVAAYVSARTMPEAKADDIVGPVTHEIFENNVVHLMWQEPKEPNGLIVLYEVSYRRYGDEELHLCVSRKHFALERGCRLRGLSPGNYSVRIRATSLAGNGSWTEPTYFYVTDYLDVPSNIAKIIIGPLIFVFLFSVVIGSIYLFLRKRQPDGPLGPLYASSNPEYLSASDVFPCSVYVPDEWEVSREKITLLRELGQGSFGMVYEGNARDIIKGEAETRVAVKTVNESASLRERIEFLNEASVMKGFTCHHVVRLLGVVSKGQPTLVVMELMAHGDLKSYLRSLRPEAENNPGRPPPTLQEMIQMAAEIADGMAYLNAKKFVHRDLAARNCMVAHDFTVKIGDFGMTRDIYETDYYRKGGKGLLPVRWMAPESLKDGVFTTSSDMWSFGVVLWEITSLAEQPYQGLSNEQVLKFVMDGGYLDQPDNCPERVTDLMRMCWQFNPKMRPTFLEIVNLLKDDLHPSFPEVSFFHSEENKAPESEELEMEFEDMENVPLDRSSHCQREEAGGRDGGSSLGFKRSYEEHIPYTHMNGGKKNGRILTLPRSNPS
T29 sequence (P11309 whole entry): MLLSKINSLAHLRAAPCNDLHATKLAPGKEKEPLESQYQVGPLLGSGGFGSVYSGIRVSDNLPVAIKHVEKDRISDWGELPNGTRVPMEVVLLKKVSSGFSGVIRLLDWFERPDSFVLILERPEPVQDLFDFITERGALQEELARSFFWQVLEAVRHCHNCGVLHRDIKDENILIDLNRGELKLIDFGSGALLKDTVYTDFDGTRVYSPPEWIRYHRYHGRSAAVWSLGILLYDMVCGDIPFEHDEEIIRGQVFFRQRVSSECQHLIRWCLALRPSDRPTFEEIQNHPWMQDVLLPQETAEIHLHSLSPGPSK

## CN(C)Cc1cccc(Nc2ncc(Cl)c(-c3csc(C(=O)NN4CCOCC4)c3)n2)c1 [SKLB-D18, 4-(5-chloro-2-((3-((dimethylamino)methyl)phenyl)amino)pyrimidin-4-yl)-N-morpholinothiophene-2-carboxamide]
CDK17/cyclinY(h)
  inhibition at 1 µM: 57%
CK1α(h)
  inhibition at 1 µM: 8%
CK1δ(h)
  inhibition at 1 µM: 16%
CK2(h)
  inhibition at 1 µM: 68%
CSK(h)
  inhibition at 1 µM: -11%
DRAK2(h)
  inhibition at 1 µM: 29%
DYRK3(h)
  inhibition at 1 µM: 49%
Flt4(h)
  inhibition at 1 µM: 63%
HIPK1(h)
  inhibition at 1 µM: 68%
IR(h)
  inhibition at 1 µM: 0%
JNK3(h)
  inhibition at 1 µM: 66%
MAK(h)
  inhibition at 1 µM: 46%
MAPK3(h)
  inhibition at 1 µM: 96%
MAPK7(h)
  inhibition at 1 µM: 93%
MATK(h)
  inhibition at 1 µM: 2%
MINK(h)
  inhibition at 1 µM: 22%
MSK2(h)
  inhibition at 1 µM: 16%
MST3(h)
  inhibition at 1 µM: 19%
MST4(h)
  inhibition at 1 µM: 15%
NEK1(h)
  inhibition at 1 µM: 48%
PAK2(h)
  inhibition at 1 µM: 12%
PAK6(h)
  inhibition at 1 µM: 10%
PI3KC2g(h)
  inhibition at 1 µM: -7%
PIP5K1a(h)
  inhibition at 1 µM: -5%
PKBβ(h)
  inhibition at 1 µM: -12%
PKCδ(h)
  inhibition at 1 µM: 23%
PKD3(h)
  inhibition at 1 µM: 55%
PhKγ2(h)
  inhibition at 1 µM: 19%
Pim-1(h)
  inhibition at 1 µM: 37%
RIPK2(h)
  inhibition at 1 µM: 61%
ROCK-I(h)
  inhibition at 1 µM: 10%
Rsk2(h)
  inhibition at 1 µM: 41%
SAPK3(h)
  inhibition at 1 µM: 25%
TAO2(h)
  inhibition at 1 µM: 64%
TAO3(h)
  inhibition at 1 µM: 36%
TRB2(h)
  inhibition at 1 µM: 71%
TrkA(h)
  inhibition at 1 µM: 48%
VRK1(h)
  inhibition at 1 µM: 16%
WNK1(h)
  inhibition at 1 µM: 12%
WNK4(h)
  inhibition at 1 µM: 18%
p70S6K(h)
  inhibition at 1 µM: 57%
